Experimental data as given in patent EP4803080A1, “METHOD FOR TREATING LEUKEMIA” (Shenzhen TargetRx Co., Ltd., priority 2023, dated 2025).
Where “and” joins values, the source holds several entries; their conditions need not be identical. Equal values may be shown once. Read-outs that look alike come from different tables or passages of the source.

What was measured:
[1] = test system: Ba/F3 BCR-ABL1 E255V/T315I; test: Cell growth inhibition activity test, single agents and combinations (CellTiter-Glo, Chou-Talalay); assay type: cell-based; conditions: Mus musculus, BaF3; single agent; E255V/T315I; 72 hours; read-out: IC50
Description: A series of cell lines expressing BCR-ABL1 single mutations and compound mutations were constructed based on the Ba/F3 mouse pro-B cell line.
This assay utilized the CellTiter-Glo (CTG) kit provided by Promega, which is a homogeneous method for cell viability detection, measuring the viability of cultured cells by quantifying ATP. Cells were seeded in 96-well plates and treated with different concentrations of test substances. […] At the end of the treatment, CTG reagent (CellTiter-Glo kit) was added according to the manufacturer's instructions to detect cell viability values. Plates were read on a microplate reader (Biotek cytation 3.0). IC50 values were calculated using GraphPad Prism 7.0 software.

Ba/F3 BCR-ABL1 H396P = test: Cell growth inhibitory activity test (CellTiter-Glo); assay type: cell-based; conditions: Mus musculus, BaF3, 72 hours
Description: (§1) The inhibitory effects of the compounds of the examples on the activity of Ba/F3 parental cells, Ba/F3 Bcr-Abl wild-type and mutant cells were detected.
(§2) This test used the Celltiter-Glo (CTG) kit (a homogeneous method for cell viability detection) provided by Promega to determine the cell viability of cultured cells by quantifying ATP. Ba/F3 parental cells were purchased from RIKEN BRC, catalog number RCB0805; other cells containing BCR-ABL1 wild-type and mutants were monoclonal engineered cell lines obtained by transfecting Ba/F3 parental cells with lentiviral plasmids containing WT or corresponding mutations of BCR-ABL1.
(§3) The steps for cell viability detection are as follows: • a) Collect cells in the logarithmic growth phase, prepare a cell suspension and count the cells to calculate the cell concentration. • b) After diluting the cell suspension to the desired concentration, add it to the inner wells of the 96-well plate, and add PBS to the edge wells. Wells containing only culture medium without cells serve as blank controls. • c) In addition to the cell plate used for compound analysis, prepare another 96-well plate as the T0 plate, adding 3-6 blank wells and 3-6 cell wells. Perform CTG assay the next day to measure cell viability, which serves as the T0 viability value for the cells. • d) Place the cell plate in a 37°C, 5% CO2 incubator and culture overnight. • e) The next day, add gradient-diluted compounds at various concentrations, and place the cell plate in a 37°C, 5% CO2 incubator for 72 hours.
(§4) The following nonlinear fitting formula was used to obtain the IC50 (half maximal inhibitory concentration) of the compounds: Y = Bottom + (Top−Bottom)/(1+10(LogIC50−X)∗HillSlope) [formula] • Y: Inhibition rate (%inhibition) • X: Logarithmic value of compound concentration • Top: Maximum response • Bottom: Baseline response • HillSlope: Slope of the curve

Ba/F3 BCR-ABL1 M244V = test: as above; assay type: cell-based; conditions: Mus musculus, BaF3, 72 hours
Description: as §1, §2, §3, §4

Ba/F3 BCR-ABL1 G250E = test: as above; assay type: cell-based; conditions: Mus musculus, BaF3, 72 hours
Description: as §1, §2, §3, §4

Ba/F3 BCR-ABL1 E255V = test: as above; assay type: cell-based; conditions: Mus musculus, BaF3, 72 hours
Description: as §1, §2, §3, §4

Ba/F3 BCR-ABL1 P223S = test: as above; assay type: cell-based; conditions: Mus musculus, BaF3, 72 hours
Description: as §1, §2, §3, §4

Ba/F3 BCR-ABL1 E355G = test: as above; assay type: cell-based; conditions: Mus musculus, BaF3, 72 hours
Description: as §1, §2, §3, §4

Ba/F3 BCR-ABL1 E459K = test: as above; assay type: cell-based; conditions: Mus musculus, BaF3, 72 hours
Description: as §1, §2, §3, §4

Ba/F3 BCR-ABL1 Q252H = test: as above; assay type: cell-based; conditions: Mus musculus, BaF3, 72 hours
Description: as §1, §2, §3, §4

Ba/F3 BCR-ABL1 M351T = test: as above; assay type: cell-based; conditions: Mus musculus, BaF3, 72 hours
Description: as §1, §2, §3, §4

Ba/F3 BCR-ABL1 E255K = test: as above; assay type: cell-based; conditions: Mus musculus, BaF3, 72 hours
Description: as §1, §2, §3, §4

Ba/F3 BCR-ABL1 WT = test: as above; assay type: cell-based; conditions: Mus musculus, BaF3, 72 hours
Description: as §1, §2, §3, §4

Ba/F3 BCR-ABL1 I502L = test: as above; assay type: cell-based; conditions: Mus musculus, BaF3, 72 hours
Description: as §1, §2, §3, §4

Ba/F3 parental cells = test: as above; assay type: cell-based; conditions: Mus musculus, BaF3, 72 hours
Description: as §1, §2, §3, §4

Ba/F3 BCR-ABL1 F359V = test: as above; assay type: cell-based; conditions: Mus musculus, BaF3, 72 hours
Description: as §1, §2, §3, §4

Ba/F3 BCR-ABL1 F317L = test: as above; assay type: cell-based; conditions: Mus musculus, BaF3, 72 hours
Description: as §1, §2, §3, §4

Ba/F3 BCR-ABL1 Y253H = test: as above; assay type: cell-based; conditions: Mus musculus, BaF3, 72 hours
Description: as §1, §2, §3, §4

Ba/F3 BCR-ABL1 V299L = test: as above; assay type: cell-based; conditions: Mus musculus, BaF3, 72 hours
Description: as §1, §2, §3, §4

[2] = Study of blood-brain ratio after single oral dose; assay type: in vivo; conditions: male SD rats
Description: A total of 15 male SD rats (3 per time point) were administered a single oral dose of Compound A via oral gavage at 50 mg/kg, with the vehicle being 0.5% sodium carboxymethyl cellulose (CMC-Na). The animals were not fasted. Whole blood, cerebrospinal fluid, and brain tissue were collected at 0.5, 2, 4, 8, and 24 hours post-dose. Whole blood samples (about 0.3 mL) were collected via puncture of the jugular venous sinus and transferred to dipotassium ethylenediaminetetraacetate (K2EDTA) anticoagulant tubes, mixed thoroughly, placed on wet ice, and centrifuged within 30 minutes for 5 minutes (6000 rpm, 4°C) to obtain plasma. Cerebrospinal fluid (about 0.10 mL) was collected via puncture of the cerebellomedullary cistern and placed in collection tubes. Brain tissue samples were rinsed with saline, dried with filter paper, blood vessels were removed, and the weight was weighed and recorded. Brain tissue was homogenized with 9 times its weight of homogenization buffer (30% MeOH, containing 0.2% FA/70% 10 mM PBS). All samples were stored in a freezer at -80°C or lower until LC-MS analysis. PK parameters were calculated using the non-compartmental model in WinNonlin and the compound concentrations in each matrix.

[3] = PO 50 mg/kg single dose, 0.5 hr, individual rat, 50 mg/kg
[4] = PO 50 mg/kg single dose, 2 hr, individual rat, 50 mg/kg
[5] = PO 50 mg/kg single dose, 4 hr, individual rat, 50 mg/kg
[6] = PO 50 mg/kg single dose, 8 hr, individual rat, 50 mg/kg
[7] = PO 50 mg/kg single dose, 24 hr, individual rat, 50 mg/kg

`O=C(Nc1ccc(OC(F)(F)Cl)cc1)c1cnc(N2CC[C@@H](F)C2)c(-c2cnccn2)c1` [Compound A, (R)-N-(4-(chlorodifluoromethoxy)phenyl)-6-(3-fluoropyrrolidin-1-yl)-5-(pyrazin-2-yl)nicotinamide] showed an IC50 [1] of 151 nM, an IC50 (Ba/F3 BCR-ABL1 H396P) of 11.7 ± 0.28 nM and an IC50 (Ba/F3 BCR-ABL1 M244V) of 26.8 ± 2.26 nM. For the same compound, the IC50 (Ba/F3 BCR-ABL1 G250E) was 2.49 ± 0.18 nM, the IC50 (Ba/F3 BCR-ABL1 E255V) was 2.73 ± 0.02 nM and the IC50 (Ba/F3 BCR-ABL1 P223S) was 43.7 ± 4.88 nM. The IC50 (Ba/F3 BCR-ABL1 E355G) was 52.6 ± 0.42 nM, the IC50 (Ba/F3 BCR-ABL1 E459K) was 3.8 ± 0.22 nM and the IC50 (Ba/F3 BCR-ABL1 Q252H) was 2.38 ± 0.43 nM. It also gave an IC50 (Ba/F3 BCR-ABL1 M351T) of 3.52 ± 0.5 nM, an IC50 (Ba/F3 BCR-ABL1 E255K) of 1.01 ± 0.08 nM and an IC50 (Ba/F3 BCR-ABL1 WT) of 4.11 ± 0.05 nM. For the same compound, the IC50 (Ba/F3 BCR-ABL1 I502L) was 94.8 ± 1.06 nM, the IC50 (Ba/F3 parental cells) was 10000 nM and the IC50 (Ba/F3 BCR-ABL1 F359V) was 89.4 ± 8.91 nM. The IC50 (Ba/F3 BCR-ABL1 F317L) was 17.2 ± 0.99 nM, the IC50 (Ba/F3 BCR-ABL1 Y253H) was 5.6 ± 0.53 nM and the IC50 (Ba/F3 BCR-ABL1 V299L) was 72.3 ± 5.87 nM. For the same compound, the “Brain Concentration (ng/g) Concentration” value [2, 3] was 302 ng/g and 381 ng/g, the “Brain/Blood Ratio Individual Value” [2, 3] was 0.376 and 0.578 and the “Brain Concentration (ng/g) Concentration” value [2, 4] was 1360 ng/g and 1070 ng/g. The “Brain/Blood Ratio Individual Value” [2, 4] was 0.410 and 0.502, the “Brain Concentration (ng/g) Concentration” value [2, 5] was 1190 ng/g and 1310 ng/g and the “Brain/Blood Ratio Individual Value” [2, 5] was 0.478 and 0.466. The “Brain Concentration (ng/g) Concentration” value [2, 6] was 452 ng/g and 1700 ng/g and 994 ng/g, the “Brain/Blood Ratio Individual Value” [2, 6] was 0.447 and 0.462 and the “Brain Concentration (ng/g) Concentration” value [2, 7] was 40.4 ng/g and 10.2 ng/g. For the same compound, the “Brain/Blood Ratio Individual Value” [2, 7] was 0.488 and 0.990, the concentration at 0.5 h ([2]; male, SD, rat, brain, po, 50 mg/kg, PO 50 mg/kg single dose, 0.5 hr, individual rat, read-out: Brain Concentration (ng/g) Concentration) was 415 ng/g and the concentration at 0.5 h ([2]; male, SD, rat, brain, po, 50 mg/kg, PO 50 mg/kg single dose, 0.5 hr, mean of 3 rats, read-out: Brain Concentration (ng/g) Mean) was 366 ng/g. It also gave a concentration at 2 h ([2]; male, SD, rat, brain, po, 50 mg/kg, PO 50 mg/kg single dose, 2 hr, individual rat) of 961 ng/g, a concentration at 4 h ([2]; male, SD, rat, brain, po, 50 mg/kg, PO 50 mg/kg single dose, 4 hr, individual rat) of 880 ng/g and a concentration at 24 h ([2]; male, SD, rat, brain, po, 50 mg/kg, PO 50 mg/kg single dose, 24 hr, mean (one rat NA)) of 16.9 ng/g. It also gave a Kp at 0.5 h ([2]; male, SD, rat, brain/plasma, po, 50 mg/kg, PO 50 mg/kg single dose, 0.5 hr, individual rat) of 0.624, a Kp at 2 h ([2]; male, SD, rat, brain/plasma, po, 50 mg/kg, PO 50 mg/kg single dose, 2 hr, individual rat) of 0.439 and a Kp at 4 h ([2]; male, SD, rat, brain/plasma, po, 50 mg/kg, PO 50 mg/kg single dose, 4 hr, individual rat) of 0.374. For the same compound, the Kp at 8 h ([2]; male, SD, rat, brain/plasma, po, 50 mg/kg, PO 50 mg/kg single dose, 8 hr, individual rat) was 0.511, the Kp ([2]; male, SD, rat, brain/plasma, po, 50 mg/kg, single oral dose 50 mg/kg, 0.5 to 24 hours, read-out: brain-to-plasma concentration ratio) was 0.44 to 0.74 and the Cmax ([2]; rat, brain, single oral dose 50 mg/kg) was 1130 ng/g. The “AUC0-last in the brain” value ([2]; single oral dose 50 mg/kg) was 16346 ng·h/g.
